According to patent US20220331415A1, “IMMUNOACTIVE MICROPARTICLES AND USES THEREOF” (The Regents of the University of California, priority 2019, published 2022):

What was measured:
TGF-β receptor = details: TGF-β inhibitors; cited from earlier work
[1] = tested on: Treg formation (Foxp3+ T cells); test: Inhibition of Treg formation: Foxp3 expression in naïve T cells co-cultured with microparticles, flow cytometry; format: cell-based; details: same concentration of TGF-β inhibitors, galunisertib compared with SB505124, after 4 days
Excerpt: FIG. 16 further describes TGF-β inhibitors galunisertib (LY2157299) and SB505124 (top). […] Naïve T cells were co-cultured with microparticles and flow cytometry is being used after 4 days to evaluate the intracellular Foxp3 expression.
Thus, in one embodiment, an inhibitor or blocker of TGF-β is included or incorporated into the microparticles of the invention. A TGF-β inhibitor (TGF-βi) such as a TGF-β receptor inhibitor may be used. Non-limiting examples include galinusertib (LY2157299) or SB505124. […] This TGFβ inhibitor used for further studies as described in FIGS. 16-20.
To efficiently stimulate the proliferation of cytotoxic T cells, the microparticles of the invention should suppress formation of regulatory T cells (Tregs) from CD4+ cells attracted to the microparticles. Sustained presence of TGF-β inhibitors can suppress Tregs formation. FIG. 15 and FIG. 16 depict two TGF-β inhibitors used here to show the suppression effect. […] Incorporation of β-cyclodextrin was used to increase the affinity and loading of Galunisertib to microparticles (FIG. 17). β-cyclodextrin was conjugated to Alginate or Alginate-Heparin polymers.

[2] = compared to IL-2, cited from earlier work

Molecule | IC50 (TGF-β receptor) [nM] | Treg suppression (Foxp3 expression, number of Foxp3+ cells) [1] | Treg suppression (Foxp3 expression, number of Foxp3+ cells) ([1]; listed as Galunisertib) | expansion of cytotoxic T cells [2] | toxicity ([2]; lower Treg expansion, reduced pulmonary edema) | antitumor responses ([2]; in vivo)
Cc1cccc(-c2[nH]c(C(C)(C)C)nc2-c2ccc3c(c2)OCO3)n1 [SB505124] | 129 | – | – | – | – | –
Cc1cccc(-c2nn3c(c2-c2ccnc4ccc(C(N)=O)cc24)CCC3)n1 [galunisertib] | 56 | stronger Treg suppression | higher degree of Tregs suppression | – | – | –
IL-2 superkine: artificial variant of IL-2 containing mutations L80F/R81D/L85V/I86V/I92F (SEQ ID NO: 3) (protein) MGEFAPTSSSTKKTQLQLEHLLLDLQMILNGINNYKNPKLTRMLTFKFYMPKKATELKHLQCLEEELKPLEEVLNLAQSKNFHFDPRDVVSNINVFVLELKGSETTFMCEYADETATIVEFLNRWITFCQSIISTLTH | – | – | – | superior expansion | proportionally less toxicity | improved antitumor responses
